What was measured:
[1] = system: Respiratory Syncytial Virus; experiment: microbe, parasite or virus in culture; format: cell-based; conditions: for SI (selectivity index, CC50 divided by IC50): CC50 (HeLa cells) / IC50 (Respiratory Syncytial Virus); for IC50: human respiratory syncytial virus, 168 h, Respiratory Syncytial Virus in HeLa cells, seven days after infection, tetrazolium-based colorimetric assay, read-out: IC50 (antiviral activity, protection against cytopathology caused by virus)
Protocol: (§1) The percent protection against cytopathology caused by viruses (antiviral activity or IC50) achieved by tested compounds and their cytotoxicity (CC50) were both calculated from dose-response curves.
Automated tetrazolium-based colorimetric assays were used for determination of IC50 and CC50 of test compounds. Flat-bottom, 96-well plastic microtiter trays were filled with 180 μl of Eagle's Basal Medium, supplemented with 5% FCS (0% for FLU) and 20 mM Hepes buffer. Subsequently, stock solutions (7.8× final test concentration) of compounds were added in 45 μl volumes to a series of triplicate wells so as to allow simultaneous evaluation of their effects on virus- and mock-infected cells. Five five-fold dilutions were made directly in the microtiter trays using a robot system. Untreated virus controls, and HeLa cell controls were included in each test. Approximately 100 TCID50 of Respiratory Syncytial Virus was added to two of the three rows in a volume of 50 μl. The same volume of medium was added to the third row to measure the cytotoxicity of the compounds at the same concentrations as those used to measure the antiviral activity. After two hours of incubation, a suspension (4×10^5 cells/ml) of HeLa cells were added to all wells in a volume of 50 μl. The cultures were incubated at 37° C. in a 5% CO2 atmosphere. Seven days after infection the cytotoxicity and the antiviral activity was examined spectrophotometrically. To each well of the microtiter tray, 25 μl of a solution of MTT (3-(4,5-dimethylthiazol-2-yl)-2,5-diphenyltetrazolium bromide) was added. The trays were further incubated at 37° C. for 2 hours, after which the medium was removed from each cup. Solubilization of the formazan crystals was achieved by adding 100 μl 2-propanol. Complete dissolution of the formazan crystals were obtained after the trays have been placed on a plate shaker for 10 min. Finally, the absorbances were read in an eight-channel computer-controlled photometer (Multiskan MCC, Flow Laboratories) at two wavelengths (540 and 690 nm). The absorbance measured at 690 nm was automatically subtracted from the absorbance at 540 nm, so as to eliminate the effects of non-specific absorption.

[2] = Cytotoxicity in mock-infected HeLa cells (tetrazolium/MTT colorimetric assay); format: cell-based; conditions: human
Protocol: as §1
Automated tetrazolium-based colorimetric assays were used for determination of IC50 and CC50 of test compounds. Flat-bottom, 96-well plastic microtiter trays were filled with 180 μl of Eagle's Basal Medium, supplemented with 5% FCS (0% for FLU) and 20 mM Hepes buffer. Subsequently, stock solutions (7.8× final test concentration) of compounds were added in 45 μl volumes to a series of triplicate wells so as to allow simultaneous evaluation of their effects on virus- and mock-infected cells. Five five-fold dilutions were made directly in the microtiter trays using a robot system. Untreated virus controls, and HeLa cell controls were included in each test. Approximately 100 TCID50 of Respiratory Syncytial Virus was added to two of the three rows in a volume of 50 μl. […] Finally, the absorbances were read in an eight-channel computer-controlled photometer (Multiskan MCC, Flow Laboratories) at two wavelengths (540 and 690 nm). The absorbance measured at 690 nm was automatically subtracted from the absorbance at 540 nm, so as to eliminate the effects of non-specific absorption.

CC(CN)N1CCC(Nc2nc3ccccc3n2C(C)c2ccccn2)CC1 (centres unmarked) [Compound 30]
melting point: 85 °C

O=CNCCN1CCC(Nc2nc3ccccc3n2Cc2ccccn2)CC1 [Compound 18]
melting point: 146 °C

CCC(CN)N1CCC(Nc2nc3ccccc3n2Cc2ccccn2)CC1 (centres unmarked) [Compound 23]
melting point: 112 °C

Cc1ccc(O)c(Cn2c(NC3CCN(CCN)CC3)nc3c(C)cccc32)n1 [Compound 357]
SI (selectivity index, CC50 divided by IC50) [1]: >79
IC50 [1]: 0.13 nM
CC50 at 7 days ([2]; mock-infected HeLa cells, seven days, tetrazolium-based colorimetric assay): > 0.01 µM

NCCCCN1CCC(Nc2nc3ccccc3n2Cc2ccccn2)CC1 [Compound 31]
melting point: 94 °C

Cc1ccc(OCCO)c(Cn2c(NC3CCN(CCN)CC3)nc3ccccc32)n1 [Compound 27]
SI (selectivity index, CC50 divided by IC50) [1]: >7943
IC50 [1]: 12.6 nM
CC50 at 7 days [2]: > 100 µM

CC(C)C(N)CN1CCC(Nc2nc3ccccc3n2Cc2ccccn2)CC1 (centres unmarked) [Compound 24]
melting point: 115 °C
